Consider seven molecules from PubChem BioAssay (NCI).

Test systems include BT-549 breast; CAKI-1 renal; CCRF-CEM leukemia; COLO 205 colon; HOP-62 NSCLC; HOP-92 NSCLC; IGROV1 ovarian; M14 melanoma; MDA-MB-435; MDA-N; MOLT-4 leukemia; NCI-H522 lung; OVCAR-4 ovarian; OVCAR-5 ovarian; RPMI-8226 leukemia; T-47D breast; TK-10 renal; U251 CNS; UACC-257 melanoma.
Holding throughout (experiment): NCI anticancer screen, dose series, 48 h

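Assay format: 96-well plates, 48-hour exposure. TGI: concentration producing complete growth inhibition.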

On to `O=C1/C(=C/c2ccc(O)cc2)CCc2ccc([N+](=O)[O-])cc21`, for which the TGI in the assay with BT-549 breast was > 100 µM; with CAKI-1 renal, > 100 µM; with CCRF-CEM leukemia, > 100 µM; with COLO 205 colon, > 100 µM; in the assay on HOP-62 NSCLC, > 100 µM; in the assay with HOP-92 NSCLC it was > 89.6 µM. In addition, the TGI with IGROV1 ovarian is > 100 µM; in the assay on M14 melanoma, > 100 µM; in the assay on MDA-MB-435 it was > 100 µM; in the assay on MDA-N it was > 100 µM; with MOLT-4 leukemia, > 100 µM; with NCI-H522 lung, > 30800 nM. Moreover, the TGI in the assay with OVCAR-4 ovarian, in the assay on OVCAR-5 ovarian, in the assay with RPMI-8226 leukemia, in the assay with T-47D breast, with TK-10 renal and with U251 CNS was > 100 µM each time. Moreover, the TGI with UACC-257 melanoma was > 100 µM.
Take `C=C1[C@H](OCC(C)C)[C@@H](O)[C@@H](OC(=O)c2cccnc2)C(C)(C)/C=C/[C@H](C)[C@H](OC(C)=O)[C@@]2(O)C[C@@](C)(OC(C)=O)[C@H](OC(=O)c3ccccc3)[C@@H]2[C@H]1OC(C)=O`: the TGI was > 4.23 µM in the assay with BT-549 breast; > 5 µM in the assay with CAKI-1 renal; > 2.82 µM in the assay on CCRF-CEM leukemia; > 5 µM in the assay with COLO 205 colon; 2.26 µM in the assay with HOP-62 NSCLC; > 5 µM in the assay on HOP-92 NSCLC. Besides, the TGI was > 5 µM in the assay with IGROV1 ovarian; > 4.49 µM in the assay on M14 melanoma; > 3.97 µM in the assay on MDA-MB-435; > 5 µM in the assay on MDA-N; > 2.79 µM with MOLT-4 leukemia; 2540 nM in the assay with NCI-H522 lung. The TGI in the assay on OVCAR-4 ovarian is > 5 µM; in the assay on OVCAR-5 ovarian, > 5 µM; in the assay with RPMI-8226 leukemia, 3.35 µM; with T-47D breast, > 5 µM; in the assay on TK-10 renal, > 5 µM; in the assay with U251 CNS, > 5 µM. The TGI with UACC-257 melanoma is > 5 µM.
In the case of `C=C1C[C@@H]2O[C@H]3[C@H]4[C@@H](C[C@@H](C)[C@@H](OC(C)=O)[C@H]42)[C@@H](C)CO[C@@]3(C)[C@H](OC(=O)CCCCCCC)C[C@H]1O`, the TGI was 32.9 µM in the assay on BT-549 breast; 28 µM in the assay on CAKI-1 renal; 38 µM in the assay on CCRF-CEM leukemia; 29.9 µM with COLO 205 colon; 32.9 µM in the assay on HOP-62 NSCLC; 30.4 µM in the assay on HOP-92 NSCLC. Further, the TGI was 36 µM with IGROV1 ovarian; 35.2 µM with M14 melanoma; 34.8 µM with MDA-MB-435; 30.3 µM with MDA-N; 52.7 µM in the assay on MOLT-4 leukemia; 34400 nM with NCI-H522 lung. In addition, the TGI in the assay on OVCAR-4 ovarian turned out to be 28.1 µM; in the assay on OVCAR-5 ovarian it was 32 µM; in the assay on RPMI-8226 leukemia, 42.6 µM; with T-47D breast it was 24.6 µM; in the assay with TK-10 renal, 32.8 µM; in the assay on U251 CNS it was 30.6 µM. The same molecule came in with a TGI in the assay with UACC-257 melanoma of 32.6 µM.
For `O/N=C(/CC(O)(C(F)(F)F)C(F)(F)F)c1ccccc1`, the TGI with BT-549 breast, in the assay on CAKI-1 renal, in the assay with CCRF-CEM leukemia, in the assay with COLO 205 colon, with HOP-62 NSCLC and with HOP-92 NSCLC was > 10 µM each time. For the same molecule, the TGI in the assay with IGROV1 ovarian is > 10 µM; in the assay with M14 melanoma it was > 10 µM; in the assay on MDA-MB-435, > 10 µM; with MDA-N, > 10 µM; in the assay with MOLT-4 leukemia, > 10 µM; in the assay with NCI-H522 lung, > 10000 nM. Further, the TGI with OVCAR-4 ovarian, in the assay with OVCAR-5 ovarian, with RPMI-8226 leukemia, in the assay on T-47D breast, with TK-10 renal and with U251 CNS was > 10 µM in each case. The TGI in the assay with UACC-257 melanoma was > 10 µM.
For the molecule `CCC/C(Cl)=N/OC(=O)Nc1cc(C(F)(F)F)ccc1OC`, the TGI with BT-549 breast was 28.8 µM; in the assay with CAKI-1 renal, 9.01 µM; with CCRF-CEM leukemia, > 20.7 µM; in the assay on COLO 205 colon it was 3.45 µM; in the assay with HOP-62 NSCLC, 32.2 µM; in the assay on HOP-92 NSCLC, 6.56 µM. For the same molecule, the TGI in the assay on IGROV1 ovarian came to 30.7 µM; in the assay with M14 melanoma, 21.4 µM; in the assay with MDA-MB-435, 26.3 µM; in the assay on MDA-N, 25 µM; in the assay with MOLT-4 leukemia, 6.01 µM; in the assay on NCI-H522 lung, 2990 nM. The TGI with OVCAR-4 ovarian worked out at 9.75 µM; in the assay on OVCAR-5 ovarian, 32.1 µM; in the assay with RPMI-8226 leukemia it was 6.05 µM; with T-47D breast it was 15.6 µM; in the assay on TK-10 renal, 32.5 µM; in the assay with U251 CNS it was 31.6 µM. In addition, the TGI in the assay on UACC-257 melanoma came out at 30.9 µM.
Consider `Cc1cc2nc(C=C(C(F)(F)F)C(F)(F)F)sc2cc1C`, for which the TGI is 4.64 µM in the assay on BT-549 breast; 8.24 µM with CAKI-1 renal; > 100 µM with CCRF-CEM leukemia; 13.7 µM in the assay with COLO 205 colon; 7.59 µM with HOP-62 NSCLC; 16.2 µM in the assay on HOP-92 NSCLC. Moreover, the TGI in the assay with IGROV1 ovarian is 7.78 µM; with M14 melanoma, 3.31 µM; in the assay with MDA-MB-435 it was 7.07 µM; in the assay on MDA-N, > 19.8 µM; in the assay on MOLT-4 leukemia it was > 100 µM; in the assay with NCI-H522 lung it was 1010 nM. Also, the TGI with OVCAR-4 ovarian was 14.9 µM; in the assay with OVCAR-5 ovarian, 8.66 µM; with RPMI-8226 leukemia, 1.41 µM; in the assay with T-47D breast, 1.78 µM; with TK-10 renal, 5.91 µM; in the assay with U251 CNS, 4.21 µM. Also, in the assay with UACC-257 melanoma, the TGI came out at 13.6 µM.
Turning to `CC(=O)OCC1OC(c2c(OC(C)=O)cc(C)c3c(=O)cc(/C(C(C)=O)=C(\C)O)oc23)C(OC(C)=O)C(OC(C)=O)C1OC(C)=O` (stereo not drawn), the TGI with BT-549 breast, in the assay on CAKI-1 renal, with CCRF-CEM leukemia, in the assay with COLO 205 colon, in the assay with HOP-62 NSCLC and in the assay with HOP-92 NSCLC was > 100 µM each time. The TGI with IGROV1 ovarian is > 100 µM; with M14 melanoma it was > 100 µM; in the assay on MDA-MB-435 it was > 100 µM; with MDA-N, > 100 µM; in the assay on MOLT-4 leukemia, > 100 µM; in the assay on NCI-H522 lung it was > 100000 nM. Besides, the TGI with OVCAR-4 ovarian, in the assay on OVCAR-5 ovarian, in the assay on RPMI-8226 leukemia, in the assay with T-47D breast, in the assay on TK-10 renal and with U251 CNS was > 100 µM each time. In the assay on UACC-257 melanoma, the TGI is > 100 µM.
